Assays:
[1] = literature (Lindqvist et al., 1966); cited from earlier work
[2] = Fluorescence quantum yield; type: physicochemical; settings: for Φfl (pH 3.4): pH 3.4, xanthene OH protonated; for Φfl (pH 13): pH 13, xanthene OH deprotonated
Description: (§1) Correlation between fluorescence quantum yield and the oxidation potential of the benzene ring moiety of each compound prepared above was studied. As clearly shown by the results in the figure, the fluorescence quantum yield of each compound changed depending on the oxidation potential of the benzene ring moiety. In an alkaline solution at pH 13, the OH group of the xanthene ring dissociates its proton to become an anion, and under this condition, the compound whose oxidation potential is 1.20V or lower became almost non-fluorescent, whereas the compound whose oxidation potential is 1.65V or higher emitted fluorescence with a quantum yield of almost 1. Between the two values, it was observed that the quantum yield decreases according to the decrease in the oxidation potential. An oxidation potential of the benzene ring under the acidic condition at pH 3.4, which has an influence on fluorescence, is different from that under a basic condition, i.e., the compound whose oxidation potential is 1.60V or lower is almost no fluorescent, whereas the compound whose oxidation potential is 1.90V or higher emitted fluorescence with a quantum yield of almost 0.3. It is known that the OH group of the xanthene ring is protonated at pH 3.4, and under this condition, the quantum yield of Fluorescein is about 0.3.

[3] = Oxidation potential of the benzene ring moiety (PET donor); type: physicochemical; settings: 0.1 M acetonitrile containing tetrabutylammonium perchlorate (TBAP)
Description: For the selection of a combination of R^1 and R^2, information of the electron density of the benzene ring to which they bind may be utilized. Information of the electron density of the benzene ring is easily available, for example, by calculating oxidation potential of said benzene ring according to a quantum chemical means. A reduction of the oxidation potential of said benzene ring means an increase of the electron density of said benzene ring, which corresponds to an elevation of HOMO orbital energy. For example, HOMO energy of said benzene ring moiety can be determined by a density functional theory (B3LYP/6-31G(d)). All the oxidation potentials described in the specification are indicated as values obtained with a saturated calomel electrode as a reference electrode, of which base line is different by about 0.24 V from that used for values obtained with a silver/silver nitrate electrode (Ag/Ag^+) as a reference electrode.
as §1

[4] = Maximum excitation and fluorescence wavelength of fluorescein derivatives; type: physicochemical; settings: measured in 0.1 N aqueous NaOH
Description: as §1

[5] = Fluorescence quantum yield; type: physicochemical; settings: 100 mM sodium phosphate buffer

SMILES | fluorescence quantum yield relative to fluorescein [1] | Φfl (pH 3.4) [2] | Φfl (pH 13) [2] | Oxidation potential [3] [V vs SCE] | Maximum excitation wavelength [4] [nm] | Maximum fluorescence wavelength [4] [nm] | Φfl ([5]; pH 7.4) | Φfl ([5]; pH 9.0)
O=c1ccc2c(-c3ccccc3)c3ccc(O)cc3oc-2c1 [6-Hydroxy-9-phenylfluorone] | lower fluorescence quantum yield | – | – | – | – | – | – | –
Cc1ccccc1-c1c2ccc(=O)cc-2oc2cc(O)ccc12 [Compound 1] | – | 0.319 | 0.847 | 2.19 | 491 | 510 | – | –
Cc1ccc(-c2c3ccc(=O)cc-3oc3cc(O)ccc23)c(C)c1 [Compound 2] | – | 0.307 | 0.865 | 2.08 | 491 | 510 | – | –
Cc1ccc(C)c(-c2c3ccc(=O)cc-3oc3cc(O)ccc23)c1 [Compound 3] | – | 0.319 | 0.887 | 1.98 | 491 | 510 | – | –
COc1ccccc1-c1c2ccc(=O)cc-2oc2cc(O)ccc12 [Compound 4] | – | 0.076 | 0.860 | 1.75 | 494 | 515 | – | –
COc1ccc(-c2c3ccc(=O)cc-3oc3cc(O)ccc23)c(C)c1 [Compound 5] | – | 0.010 | 0.840 | 1.66 | 492 | 509 | – | –
COc1ccc(C)cc1-c1c2ccc(=O)cc-2oc2cc(O)ccc12 [Compound 6] | – | 0.004 | 0.500 | 1.57 | 494 | 514 | – | –
COc1ccc(-c2c3ccc(=O)cc-3oc3cc(O)ccc23)c(OC)c1 [Compound 7] | – | 0.001 | 0.200 | 1.44 | 494 | 513 | – | –
COc1ccc(OC)c(-c2c3ccc(=O)cc-3oc3cc(O)ccc23)c1 [Compound 8] | – | 0.000 | 0.010 | 1.26 | 494 | 512 | – | –
COc1ccc(-c2c3ccc(=O)cc-3oc3cc(OP(=O)(O)O)ccc23)c(C)c1 [Compound 11] | – | – | – | – | – | – | 0.029 | –
COC(=O)COc1ccc(-c2c3ccc(=O)cc-3oc3cc(O)ccc23)c(C)c1 [Compound 15] | – | – | – | – | – | – | – | 0.87
COC(=O)COc1ccc(-c2c3ccc(=O)cc-3oc3cc(O[C@@H]4OC(COC(C)=O)[C@H](OC(C)=O)C(OC(C)=O)C4OC(C)=O)ccc23)c(C)c1 (stereo partly shown) [Compound 16] | – | – | – | – | – | – | 0.069 | –
COC(=O)CCCCOc1ccc(-c2c3ccc(=O)cc-3oc3cc(O)ccc23)c(C)c1 [Compound 17] | – | – | – | – | – | – | – | 0.82
COC(=O)CCCCOc1ccc(-c2c3ccc(=O)cc-3oc3cc(O[C@@H]4OC(COC(C)=O)[C@H](OC(C)=O)C(OC(C)=O)C4OC(C)=O)ccc23)c(C)c1 (stereo partly shown) [Compound 18] | – | – | – | – | – | – | 0.005 | –

From patent US7868147B2, “Fluorescent probe” (Sekisui Medical Co., Ltd., priority 2003, dated 2011)
